# Test results published in patent publication US9649379B2, “Pharmaceutical composition and pharmaceutical kit for the treatment of hepatocellular carcinoma” (ALMA MATER STUDIORUM—UNIVERSITA' DI BOLOGNA, priority 2007, dated 2017).
# Tested on: Cleaved PARP
# Assay: Apoptosis analysis: Western blot of cleaved PARP after doxorubicin
# Format: cell-based, human
# Settings: doxorubicin 100 μg/ml, infected HepG2 cells
# Method: Stably infected cell populations of HepG2 cells were seeded into 6-well dishes and allowed to attach for 24 hours, washed and cultured in fresh complete medium with 100 ug/ml doxorubicin (Sigma) for 1 h, 3 h, 6 h, 12 h, 18 h and 24 h. Doxorubicin incorporation was detected by FACS counting of 10,000 events.
# Cultured cells were dissolved in lysis buffer containing 10 mM Tris-HCl pH 7.4, 2.5 mM MgCl2, 1% TritonX 100, 1 mM DTT, 0.1 mM phenylmethylsulfonyl fluoride (PMSF), 1 mM Na3VO4, 1 mM NaF and protease inhibitors (Sigma Chemical Company, St. Louis, Mo.). The lysate was centrifuged at 4° C., 15,000×g, for 15 min and the supernatant assayed for protein concentration by Bio-Rad protein assay (Bio-Rad). […]
# After repeated washing in PBS containing 0.1% Tween 20 (PBST), membranes were incubated with anti-mouse or anti-rabbit HRP-conjugated secondary antibodies using the EnVision dextran polymer visualization system (Dako). […] Digital images of autoradiographs were acquired with a Fluor-S MultiImager scanner (BioRad) and signals were quantitated with Quantity-one densitometric software (BioRad, Hercules, Calif.) in absorbance units after light calibration with a reference autoradiograph.
compound,measurement,value
"COc1cccc2c1C(=O)c1c(O)c3c(c(O)c1C2=O)C[C@@](O)(C(=O)CO)C[C@@H]3O[C@H]1C[C@H](N)[C@H](O)[C@H](C)O1 [Doxorubicin, doxorubicin]",cleavage of PARP,caused cleavage of PARP
